These results are taken from patent US9328099B2, “Cyanomethylpyrazole carboxamides as janus kinase inhibitors” (Merck Sharp & Dohme Corp., priority 2011, dated 2016).

One assay has as its target JAK2 (Homo sapiens (Human), UniProt O60674). The experiment in a line: Jak Biochemical HTRF Assay, JAK2. The note with it: HTRF biochemical assay, GST-tagged catalytic domain; top concentration tested […]. The text has this: (§1) Jak Biochemical HTRF Assay Protocol
(§2) Subsequent reagent additions employed an Agilent Bravo.
For orientation: Time-resolved FRET reads energy transfer from a long-lived donor to a nearby acceptor.

The next assay addresses JAK1 (Homo sapiens (Human), UniProt P23458). The experiment in a line: Jak Biochemical HTRF Assay, JAK1. The note with it: HTRF biochemical assay, GST-tagged catalytic domain; top concentration tested […]; read-out: JAK1 IC50.
From the text: as §1, §2

A value given as a limit tells only on which side of the number the result lay.

JAK2, sequence (O60674 849-1124): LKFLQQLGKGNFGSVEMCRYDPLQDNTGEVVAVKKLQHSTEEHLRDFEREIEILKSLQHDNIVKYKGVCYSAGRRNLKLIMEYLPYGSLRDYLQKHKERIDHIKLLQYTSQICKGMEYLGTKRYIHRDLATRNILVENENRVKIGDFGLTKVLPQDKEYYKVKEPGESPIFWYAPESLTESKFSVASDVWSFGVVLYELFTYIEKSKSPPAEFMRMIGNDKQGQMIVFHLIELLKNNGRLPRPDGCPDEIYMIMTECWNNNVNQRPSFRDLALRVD
JAK1, sequence (P23458 875-1153): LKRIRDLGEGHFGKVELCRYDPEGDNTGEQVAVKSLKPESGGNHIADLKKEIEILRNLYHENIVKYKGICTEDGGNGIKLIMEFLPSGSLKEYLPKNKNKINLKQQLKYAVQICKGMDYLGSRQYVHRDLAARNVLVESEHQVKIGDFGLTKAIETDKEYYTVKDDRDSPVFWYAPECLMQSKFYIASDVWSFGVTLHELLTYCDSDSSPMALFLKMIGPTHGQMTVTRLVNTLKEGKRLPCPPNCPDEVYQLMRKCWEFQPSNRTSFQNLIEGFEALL

Consider `N#CCC1(n2cc(C(N)=O)c(Nc3ccc(F)cc3)n2)CCN(C(=O)OC(CF)CF)CC1` [Example 30-9, 1,3-difluoropropan-2-yl 4-(4-carbamoyl-3-(4-fluorophenylamino)-1H-pyrazol-1-yl)-4-(cyanomethyl)piperidine-1-carboxylate], for which the IC50 (usually the concentration needed to halve the response being measured) against JAK2 was determined as 5 nM; at JAK1 it was 0.3 nM.

In the case of `CC(C)(C)OC(=O)N1CCC(CC#N)(n2cc(C(N)=O)c(Nc3cccnc3)n2)CC1` [Example 9-34, tert-butyl 4-[4-carbamoyl-3-(pyridin-3-ylamino)-1H-pyrazol-1-yl]-4-(cyanomethyl)piperidine-1-carboxylate], the figures for the IC50 on JAK2 and on JAK1 were 4 nM and 0.5 nM, respectively.

With `N#CCC1(n2cc(C(N)=O)c(Nc3ccccc3)n2)COC1` [Example 2-20, 1-[3-(cyanomethyl)oxetan-3-yl]-3-(phenylamino)-1H-pyrazole-4-carboxamide], the IC50 on JAK2 is 241 nM; on JAK1, 33 nM.

`Cn1c(C(=O)N2CCC(CC#N)(n3cc(C(N)=O)c(Nc4ccccc4)n3)CC2)cc2ccccc21` [Example 34-26, 1-{4-(cyanomethyl)-1-[(1-methyl-1H-indol-2-yl)carbonyl]piperidin-4-yl}-3-(phenylamino)-1H-pyrazole-4-carboxamide]: the IC50 was 238 nM on JAK2 and 10 nM at JAK1.

`N#CCC1(n2cc(C(N)=O)c(Nc3ccccc3)n2)CCN(Cc2c(Cl)cccc2Cl)CC1` [Example 21-14, 1-[4-(cyanomethyl)-1-(2,6-dichlorobenzyl)piperidin-4-yl]-3-(phenylamino)-1H-pyrazole-4-carboxamide]: the IC50 was 224 nM at JAK2 and 18 nM at JAK1.

For `N#CCC1(n2cc(C(N)=O)c(Nc3ccnc(F)c3)n2)CCN(Cc2cccc3cc[nH]c23)CC1` [Example 22-21, 1-[4-(cyanomethyl)-1-(1H-indol-7-ylmethyl)piperidin-4-yl]-3-[(2-fluoropyridin-4-yl)amino]-1H-pyrazole-4-carboxamide], the results for the IC50 against JAK2 and at JAK1 were 41 nM and 0.7 nM, respectively.

Regarding `CCS(=O)(=O)N1CC(CC#N)(n2cc(C(N)=O)c(Nc3ccccc3)n2)C1` [Example 2-12, 1-[3-(cyanomethyl)-1-(ethylsulfonyl)azetidin-3-yl]-3-(phenylamino)-1H-pyrazole-4-carboxamide], the IC50 against JAK2 was found to be 404 nM; on JAK1, 115 nM.

With `CCc1cccc(C)c1NC(=O)N1CC(CC#N)(n2cc(C(N)=O)c(Nc3ccccc3)n2)C1` [Example 38-23, 1-{3-(cyanomethyl)-1-[(2-ethyl-6-methylphenyl)carbamoyl]azetidin-3-yl}-3-(phenylamino)-1H-pyrazole-4-carboxamide], the IC50 against JAK2 was 1190 nM; at JAK1 it was 94 nM.

Take `N#CCC1(n2cc(C(N)=O)c(Nc3ccc(C(O)C(F)(F)F)nc3)n2)CCN(C(=O)OCC(F)(F)F)CC1` (stereo not drawn) [Example 10-3, 2,2,2-trifluoroethyl 4-(4-carbamoyl-3-(6-(2,2,2-trifluoro-1-hydroxyethyl)pyridin-3-ylamino)-1H-pyrazol-1-yl)-4-(cyanomethyl)piperidine-1-carboxylate]: the IC50 was 0.6 nM at JAK2 and 0.06 nM on JAK1.

In the case of `N#CCC1(n2cc(C(N)=O)c(Nc3ccc(F)cc3)n2)CCC(Nc2ccc(F)cc2)CC1` (stereo not drawn) [Example 40-18, Cis or trans 1-{1-(cyanomethyl)-4-[(4-fluorophenyl)amino]cyclohexyl}-3-[(4-fluorophenyl)amino]-1H-pyrazole-4-carboxamide], the IC50 against JAK2 was more than 1500 nM; on JAK1, 235 nM.

For `CC(C)(C)OC(=O)N1CCC(CC#N)(n2cc(C(N)=O)c(Nc3ccc(S(C)(=O)=O)cc3)n2)C1` (stereo not drawn) [Example 2-16, tert-butyl 3-(4-carbamoyl-3-{[4-(methylsulfonyl)phenyl]amino}-1H-pyrazol-1-yl)-3-(cyanomethyl)pyrrolidine-1-carboxylate], the IC50 against JAK2 turned out to be 2 nM; on JAK1 it was 0.2 nM.

Regarding `N#CCC1(n2cc(C(N)=O)c(Nc3ccc(F)cc3)n2)CCN(c2ccc(OC(F)F)nc2)CC1` [Example 3-13, 1-{4-(cyanomethyl)-1-[6-(difluoromethoxy)pyridin-3-yl]piperidin-4-yl}-3-[(4-fluorophenyl)amino]-1H-pyrazole-4-carboxamide], the values for the half-maximal inhibitory concentration (IC50) at JAK2 and at JAK1 were 21 nM and 0.7 nM, respectively.

In the case of `N#CCC1(n2cc(C(N)=O)c(Nc3ccc(F)cc3)n2)CCN(Cc2cccc3cc[nH]c23)CC1` [Example 22-58, 1-[4-(cyanomethyl)-1-(1H-indol-7-ylmethyl)piperidin-4-yl]-3-[(4-fluorophenyl)amino]-1H-pyrazole-4-carboxamide], the results for the IC50 against JAK2 and on JAK1 were 128 nM and 4 nM, respectively.

Turning to `CC(C)(C)OC(=O)N1CCC(CC#N)(n2cc(C(N)=O)c(Nc3cccc(-c4ccc5ccccc5c4)c3)n2)CC1` [Example 15-9, tert-butyl 4-{4-carbamoyl-3-[(3-naphthalen-2-ylphenyl)amino]-1H-pyrazol-1-yl}-4-(cyanomethyl)piperidine-1-carboxylate], the IC50 came out at 1480 nM at JAK2 and 644 nM on JAK1.

With `N#CCC1(n2cc(C(N)=O)c(Nc3ccnc(F)c3)n2)CCC(NCc2ccncc2)CC1` (stereo not drawn) [Example 41-13, Cis or trans 1-{1-(cyanomethyl)-4-[(pyridin-4-ylmethyl)amino]cyclohexyl}-3-[(2-fluoropyridin-4-yl)amino]-1H-pyrazole-4-carboxamide], the IC50 turned out to be 1000 nM at JAK2 and 86 nM at JAK1.

On to `N#CCC1(n2cc(C(N)=O)c(Nc3ccc(F)cc3)n2)CCN(C(=O)OCC2CCOCC2)CC1` [Example 30-21, tetrahydro-2H-pyran-4-ylmethyl 4-{4-carbamoyl-3-[(4-fluorophenyl)amino]-1H-pyrazol-1-yl}-4-(cyanomethyl)piperidine-1-carboxylate], for which the values for the IC50 against JAK2 and at JAK1 were 145 nM and 6 nM, respectively.

As for `COC(=O)c1ccc(Nc2nn(C3(CC#N)CCN(C(=O)OC(C)(C)C)CC3)cc2C(N)=O)cc1` [Example 9-2, tert-butyl 4-(4-carbamoyl-3-{[4-(methoxycarbonyl)phenyl]amino}-1H-pyrazol-1-yl)-4-(cyanomethyl)piperidine-1-carboxylate], the IC50 at JAK2 was 9 nM; on JAK1, 0.3 nM.

In the case of `COCC(C)(C)OC(=O)N1CCC(CC#N)(n2cc(C(N)=O)c(Nc3ccc(F)cc3)n2)CC1` [Example 28, 2-Methoxy-1,1-dimethylethyl 4-{4-carbamoyl-3-[(4-fluorophenyl)amino]-1H-pyrazol-1-yl}-4-(cyanomethyl)piperidine-1-carboxylate], the IC50 at JAK2 is 74 nM; at JAK1, 4 nM.

In the case of `CCC(=O)N1CC(CC#N)(n2cc(C(N)=O)c(Nc3ccccc3)n2)C1` [Example 34-36, 1-[3-(cyanomethyl)-1-propanoylazetidin-3-yl]-3-(phenylamino)-1H-pyrazole-4-carboxamide], the IC50 against JAK2 came out at 298 nM; on JAK1, 42 nM.

Regarding `N#CCC1(n2cc(C(N)=O)c(Nc3ccccc3)n2)CN(C(=O)OC2CCCCC2)C1` [Example 30-57, cyclohexyl 3-[4-carbamoyl-3-(phenylamino)-1H-pyrazol-1-yl]-3-(cyanomethyl)azetidine-1-carboxylate], the half-maximal inhibitory concentration (IC50) at JAK2 worked out at 466 nM; at JAK1, 14 nM.

With `N#CCC1(n2cc(C(N)=O)c(Nc3ccnc(F)c3)n2)CCC(NCc2cccc(Cl)c2)CC1` (stereo not drawn) [Example 41-20, Cis or trans 1-{4-[(3-chlorobenzyl)amino]-1-(cyanomethyl)cyclohexyl}-3-[(2-fluoropyridin-4-yl)amino]-1H-pyrazole-4-carboxamide], the IC50 against JAK2 was determined as 17 nM; on JAK1 it was 0.6 nM.

`N#CCC1(n2cc(C(N)=O)c(Nc3ccc(F)cc3)n2)CCN(C(=O)OC2CCCOC2)CC1` (stereo not drawn) [Example 30-25, tetrahydro-2H-pyran-3-yl 4-{4-carbamoyl-3-[(4-fluorophenyl)amino]-1H-pyrazol-1-yl}-4-(cyanomethyl)piperidine-1-carboxylate]: the values for the half-inhibitory concentration (IC50) on JAK2 and on JAK1 were 120 nM and 4 nM, respectively.

On to `N#CCC1(n2cc(C(N)=O)c(Nc3ccnc(F)c3)n2)CCN(C(=O)OC2CCOCC2)CC1` [Example 30-17, tetrahydro-2H-pyran-4-yl 4-{4-carbamoyl-3-[(2-fluoropyridin-4-yl)amino]-1H-pyrazol-1-yl}-4-(cyanomethyl)piperidine-1-carboxylate], for which the figures for the IC50 on JAK2 and at JAK1 were 96 nM and 3 nM, respectively.

Regarding `CC(C)(C)OC(=O)N1CCC(CC#N)(n2cc(C(N)=O)c(Nc3ccc(C(=O)N4CCS(=O)(=O)CC4)cc3)n2)CC1` [Example 2-6, tert-butyl 4-[4-carbamoyl-3-({4-[(1,1-dioxidothiomorpholin-4-yl)carbonyl]phenyl}amino)-1H-pyrazol-1-yl]-4-(cyanomethyl)piperidine-1-carboxylate], the IC50 at JAK2 stood at 1 nM; on JAK1 it was 0.5 nM.

Turning to `CC(C)(C)OC(=O)N1CCC(CC#N)(n2cc(C(N)=O)c(Nc3cccc(-c4ccccc4O)c3)n2)CC1` [Example 15-11, tert-butyl 4-{4-carbamoyl-3-[(2′-hydroxybiphenyl-3-yl)amino]-1H-pyrazol-1-yl}-4-(cyanomethyl)piperidine-1-carboxylate], the 50% inhibitory concentration (IC50) at JAK2 came out at 182 nM; at JAK1 it was 13 nM.

With `N#CCC1(n2cc(C(N)=O)c(Nc3ccc(F)cc3)n2)CCC(NCC2CC2)CC1` (stereo not drawn) [Example 40-69, Cis or trans 1-{1-(cyanomethyl)-4-[(cyclopropylmethyl)amino]cyclohexyl}-3-[(4-fluorophenyl)amino]-1H-pyrazole-4-carboxamide], the results for the half-inhibitory concentration (IC50) at JAK2 and at JAK1 were 667 nM and 9 nM, respectively.

With `COc1ccc(CC(=O)N2CCC(CC#N)(n3cc(C(N)=O)c(Nc4ccccc4)n3)CC2)cc1` [Example 34-24, 1-{4-(cyanomethyl)-1-[(4-methoxyphenyl)acetyl]piperidin-4-yl}-3-(phenylamino)-1H-pyrazole-4-carboxamide], the IC50 on JAK2 was 84 nM; at JAK1 it was 7 nM.
